Measurements as given in PMC7269486, “MK-571, a Cysteinyl Leukotriene Receptor 1 Antagonist, Inhibits Hepatitis C Virus Replication” (Antimicrobial Agents and Chemotherapy, 2020).
Values joined by “and” are separate entries in the source; they are usually repeats but may differ in a detail not shown here. Equal values may be shown once. “Also recorded” adds a separate entry of the source. Read-outs that look alike come from different tables or passages of the source.

How the values were obtained:
[1] = tested on: HCV genotype 1b subgenomic replicon; assay: Anti-HCV activity in the subgenomic replicon model (HCV-SGR RNA by RT-qPCR in Huh7.5-SGR cells); assay type: cell-based, Hepatitis C virus; conditions: for effect of MRP-1 inhibitor on MK-571 anti-HCV activity: added to MK-571 (probenecid 1 mM), data not shown; for effect on the anti-HCV activity of MK-571: compound added to MK-571 (10 or 50 μM); for effect on the anti-HCV activity of MK-571 / effect on HCV-SGR RNA levels / replication: increasing concentrations; for effect on HCV-SGR RNA levels / replication: compound alone
Experimental: Plasmid I389-Neo/NS3-3′/5.1, which contains a neomycin resistance gene and an HCV genotype 1b subgenome, was kindly provided by Ralf Bartenschlager (University of Heidelberg, Heidelberg, Germany). This plasmid was transfected into Huh7.5 cells to generate Huh7.5-SGR cells stably harboring an HCV genotype 1b subgenomic replicon (SGR).
Huh7.5 cells stably harboring an HCV genotype 1b bicistronic replicon (I389-Neo/NS3-3′/5.1) were seeded at the density of 5,000 cells/well in a 96-well plate. The cells were treated for 48 h with the tested compounds diluted in complete DMEM containing 1% dimethyl sulfoxide (DMSO) with 0.5 mg/ml of G418. Total RNA was extracted using the RNeasy 96 kit (Qiagen, Hilden, Germany). HCV-SGR RNA levels were measured by reverse transcriptase quantitative PCR (RT-qPCR) using the TaqMan technology with HCV-specific primers (forward primer, 5′-CGC CCA AAC CAG AAT ACG A-3′; and reverse primer, 5′-AGATAGTACACCCTTTTGCCAGATG-3′) and a qPCR probe (5′-6-carboxyfluorescein [FAM]-CAA TGT GTC AGT CGG-6-carboxytetramethylrhodamine [TAMRA]-0.3′). The data were analyzed with the 2^−ΔΔ^CT method, with all samples normalized to glyceraldehyde-3-phosphate dehydrogenase (GAPDH) mRNA. All experiments were performed in triplicate. HCV-SGR RNA relative quantities were plotted against compound concentrations and fitted with a four-parameter logistic curve with SigmaPlot v11 software. EC50s were determined from the curves.

[2] = Cytotoxicity assay (CellTiter 96 AQueous One); assay type: cell-based; conditions: human
Experimental: Assessment of the compound cytotoxicity was performed with the CellTiter 96 AQueous One assay (Promega), according to the manufacturer’s instructions. Huh7.5 cells were seeded at a density of 5,000 cells/well in a 96-well plate and incubated 24 h before addition of increasing concentrations of the indicated compounds. After 48 h, cells were incubated 4 h in the presence of the CellTiter 96 AQueous One solution reagent, and absorbance was measured at 490 nm.

[3] = tested on: Huh7.5-SGR cells harboring HCV-SGR with neomycin resistance gene; assay type: cell-based, Hepatitis C virus; conditions: 100 μM MK-571, 2 weeks, no G418
From the text: FIG 2 Anti-HCV activity of MK-571. (A) Dose-response curve and (B) fold decrease of MK-571 antiviral activity in Huh7.5 cells stably expressing an HCV genotype 1b subgenomic replicon. Data are shown as means ± SD from at least two independent experiments performed in triplicate. […]
We next examined HCV-SGR clearance during 2 weeks of treatment with MK-571. […]

[4] = tested on: HCV-J6/JFH1 (genotype 2a/2a full-length infectious model); assay: Antiviral activity in the HCV infectious model (luciferase reporter); assay type: cell-based, Hepatitis C virus; conditions: Huh7.5 cells infected with J6/JFH1, increasing concentrations, 48 h after infection
Experimental: The anti-HCV activity of MK-571 was then confirmed in a chimeric genotype 2a/2a HCV full-length infectious model (HCV-J6/JFH1) containing a luciferase reporter gene. Huh7.5 cells were infected with HCV-J6/JFH1 in the presence of an increasing concentration of MK-571, and luciferase activity was quantified 48 h after infection. […] However, MK-571 anti-HCV activity appeared higher in the genotype 1b HCV-SGR than the genotype 2a HCV full-length infectious model (Fig. 2D).
Huh7.5 cells were incubated 24 h before infection. Then, cells were infected with HCV (J6/JFH1 strain) at an mutiplicity of infection (MOI) of 0.2 during 8 h in the presence of drugs. HCV-infected cells were washed with phosphate-buffered saline (PBS) and incubated for 48 h in fresh medium containing the drugs. Then, luciferase activity was measured and plotted against compound concentrations.

[5] = Huh7.5 cells, 48 h, read-out: CC50 in Huh7.5 cells

Compound | effect on the anti-HCV activity of MK-571 ([1]; Huh7.5-SGR cells) | effect on HCV-SGR RNA levels / replication ([1]; Huh7.5-SGR cells) | CC50 at 48 h [2, 5] [µM] | other results
apigenin homodimer [APN] | – | – | – | effect of MRP-1 inhibitor on MK-571 anti-HCV activity [1]: lack of effect on MK-571 antiviral activity; effect on HCV-SGR RNA levels ([1]; apigenin homodimer 0.1 μM alone, Huh7.5-SGR cells): had no effect on HCV replication; also recorded: none of these two compounds reduced HCV-SGR RNA levels; also recorded: lack of anti-HCV activity
CCCCC/C=C\C\C=C/C=C/C=C/[C@@H](SC[C@H](N)C(=O)NCC(=O)O)[C@@H](O)CCCC(=O)O [LTD4] | completely reversed its antiviral effect; also recorded: reversed the antiviral effect of 50 μM of MK-571 in a dose-dependent manner | did not exert any effect on HCV replication | – | concentration achieving complete reversion of the antiviral effect of MK-571 ([1]; in the presence of 50 μM MK-571, Huh7.5-SGR cells): 1 µM
O=C(O)c1ccccc1Nc1cccc(OCc2ccc3ccccc3n2)c1 [SR2640] | completely reversed its antiviral effect; also recorded: not only reversed its anti-HCV activity but also increased HCV replication at the highest concentrations tested | increased HCV-SGR RNA levels in a dose-dependent manner | 33.4 ± 3.9 | maximum increase of HCV-SGR RNA levels ([1]; SR2640 alone, at 20 μM, Huh7.5-SGR cells): 11 fold
CCCN(CCC)S(=O)(=O)c1ccc(C(=O)O)cc1 [probenecid] | – | – | – | effect of MRP-1 inhibitor on MK-571 anti-HCV activity [1]: did not modify its anti-HCV activity; also recorded: lack of effect on MK-571 antiviral activity; effect on HCV-SGR RNA levels ([1]; probenecid 1 mM alone, Huh7.5-SGR cells): had no effect on HCV replication; also recorded: none of these two compounds reduced HCV-SGR RNA levels; also recorded: lack of anti-HCV activity
CC(C)c1ccc2c(c1)c(SC(C)(C)C)c(CC(C)(C)C(=O)O)n2Cc1ccc(Cl)cc1 [MK-886] | – | None of them affected HCV-SGR replication | – | –
CN(C)C(=O)CCSC(SCCC(=O)O)c1cccc(/C=C/c2ccc3ccc(Cl)cc3n2)c1 (stereo not shown) [MK-571] | – | – | > 100 | fold decrease of HCV-SGR RNA levels ([1]; 50 μM MK-571 alone, Huh7.5-SGR cells): 12 fold and ~11 fold; fold increase of the anti-HCV effect of telaprevir ([1]; 50 μM MK-571 in combination with 1 μM telaprevir, Huh7.5-SGR cells): approximately 3 fold; antiviral effect compared with telaprevir ([1]; 50 μM MK-571 vs 1 μM telaprevir, Huh7.5-SGR cells): equivalent to the effect of 1 μM of telaprevir; EC50 ([1]; Hepatitis C virus, Huh7.5, 48 h, read-out: EC50 for decrease of HCV-SGR RNA): 9 ± 0.3 µM; maximum HCV RNA level reduction ([1]; Huh7.5-SGR cells, genotype 1b replicon): ~1 log10; cell growth in the absence of G418 [3]: cell growth was not significantly affected; effect on HCV-J6/JFH1 replication (luciferase activity) [4]: dose-dependent decrease of HCV-J6/JFH1 RNA replication; also recorded: reduced the replication of the HCV full-length J6/JFH1 model in a dose-dependent manner
COc1cc(C(=O)NS(=O)(=O)c2ccccc2C)ccc1Cc1cn(C)c2ccc(NC(=O)OC3CCCC3)cc12 [Zafirlukast] | completely reversed its antiviral effect; also recorded: full reversion achieved at the highest dose tested | modest proviral effect on HCV RNA replication | > 100 | –
CC(c1cc2ccccc2s1)N(O)C(N)=O (stereo not shown) [zileuton] | – | None of them affected HCV-SGR replication | – | –
CCC[C@H](NC(=O)[C@@H]1[C@H]2CCC[C@H]2CN1C(=O)[C@@H](NC(=O)[C@@H](NC(=O)c1cnccn1)C1CCCCC1)C(C)(C)C)C(=O)C(=O)NC1CC1 [Telaprevir] | – | – | – | CC50 at 48 h [2]: > 20 µM
CCC(CC)(CC(=O)Nc1cccc(/C=C/c2nc(C3CCC3)cs2)c1)C(=O)O [Cinalukast] | completely reversed its antiviral effect; also recorded: full reversion achieved at the highest dose tested | modest proviral effect on HCV RNA replication | > 100 | –
